Source: the supplement of paper PMC11208160

Experiment: recombinant UMI read abundance after kanamycin selection (control-corrected) (log10(CPM+1)); higher = more efficient recombination; extreme values may be limits of the assay; sequences stand for … in AGTGCAGAGAAAATCGGCCAGTTTTCTCTGCCTGCAGTCCGCATGCCGTGGGACCCCTTGGGTTCTAACCTGTTGCCTAGATTTATGCAGCGGACTGCCTTTCTCCCAAAGTGATAAACCGG…AGGTTGGTTTCACT; site = the 11-nt donor
In short: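 The measure is log10(CPM+1) for recombinant UMIs. These were PCR-amplified across the donor–target junction and sequenced after Escherichia coli carrying a donor and donor-binding-loop pair library and a target plasmid with T7-inducible IS621 bridge recombinase was plated on IPTG (0.07 mM) plus kanamycin or unselected. CPM were averaged over two replicates and scaled by control-derived factors.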
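Note: IS621 bridge recombinase in Escherichia coli cells against a fixed T5 target plasmid.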

| Sequence | recombinant UMI read abundance (log10) |
| --- | --- |
| CTGCATGCATGGACCGGTTTTCCCGGTAATCCGTATTTGGT (site CTGCATGCTAC) | 1.57 |
| CTGCATGCATGGACCGGTTTTCCCGGTAATCCGTATTTGGT (site GTGCATGCTAC) | 0.0408 |
| CTGCATGCATGGACCGGTTTTCCCGGTAATCCGTATTTGGT (site TTGCATGCTAC) | 0.0633 |
| CTGCCAACATGGACCGGTTTTCCCGGTAATCCGTATTTGAA (site CTGCCAACTTT) | 0.912 |
| CTGCCGGCATGGACCGGTTTTCCCGGTAATCCGTATTTGCA (site CTGCCGGCTTG) | 2.01 |
| CTGCCTACATGGACCGGTTTTCCCGGTAATCCGTATTTGAG (site CTACCTACTCT) | 1.04 |
| CTGCCTACATGGACCGGTTTTCCCGGTAATCCGTATTTGAG (site CTCCCTACTCT) | 0.00401 |
| CTGCCTACATGGACCGGTTTTCCCGGTAATCCGTATTTGAG (site CTGCCTACTCT) | 1.03 |
| CTGCCTACATGGACCGGTTTTCCCGGTAATCCGTATTTGAG (site CTTCCTACTCT) | 0.12 |
| CTGCGAACATGGACCGGTTTTCCCGGTAATCCGTATTTGCA (site CTGCGAACTTG) | 1.38 |
| CTGCGGTCATGGACCGGTTTTCCCGGTAATCCGTATTTGTC (site CTGCGGTCTGA) | 2.1 |
| CTGCGTGCATGGACCGGTTTTCCCGGTAATCCGTATTTGGT (site CTGCGTGCTAC) | 1.37 |
| CTGCTACCATGGACCGGTTTTCCCGGTAATCCGTATTTGCG (site CTGCTACCTAG) | 0 |
| CTGCTACCATGGACCGGTTTTCCCGGTAATCCGTATTTGCG (site CTGCTACCTCG) | 0.309 |
| CTGCTACCATGGACCGGTTTTCCCGGTAATCCGTATTTGCG (site CTGCTACCTGG) | 0 |
| CTGCTACCATGGACCGGTTTTCCCGGTAATCCGTATTTGCG (site CTGCTACCTTG) | 0 |
| CTGCTACCATGGACCGGTTTTCCCGGTAATCCGTATTTGTT (site CTGCTACCTAA) | 0.0134 |
| CTGCTACCATGGACCGGTTTTCCCGGTAATCCGTATTTGTT (site CTGCTACCTAC) | 0.0167 |
| CTGCTACCATGGACCGGTTTTCCCGGTAATCCGTATTTGTT (site CTGCTACCTAG) | 0 |
| CTGCTACCATGGACCGGTTTTCCCGGTAATCCGTATTTGTT (site CTGCTACCTAT) | 0.011 |
| CTGCTAGCATGGACCGGTTTTCCCGGTAATCCGTATTTGCT (site CTGCTAACTAG) | 0 |
| CTGCTAGCATGGACCGGTTTTCCCGGTAATCCGTATTTGCT (site CTGCTACCTAG) | 0 |
| CTGCTAGCATGGACCGGTTTTCCCGGTAATCCGTATTTGCT (site CTGCTAGCTAG) | 0 |

| Sequence | recombinant UMI read abundance (log10) |
| --- | --- |
| CTGCTAGCATGGACCGGTTTTCCCGGTAATCCGTATTTGCT (site CTGCTATCTAG) | 0 |
| CTGCTATCATGGACCGGTTTTCCCGGTAATCCGTATTTGCT (site CTGCTAACTAG) | 0.708 |
| CTGCTATCATGGACCGGTTTTCCCGGTAATCCGTATTTGCT (site CTGCTACCTAG) | 0 |
| CTGCTATCATGGACCGGTTTTCCCGGTAATCCGTATTTGCT (site CTGCTAGCTAG) | 0.0179 |
| CTGCTATCATGGACCGGTTTTCCCGGTAATCCGTATTTGCT (site CTGCTATCTAG) | 2.33 |
| CTGCTGCCATGGACCGGTTTTCCCGGTAATCCGTATTTGCT (site CTGCTACCTAG) | 0.00624 |
| CTGCTGCCATGGACCGGTTTTCCCGGTAATCCGTATTTGCT (site CTGCTCCCTAG) | 0.506 |
| CTGCTGCCATGGACCGGTTTTCCCGGTAATCCGTATTTGCT (site CTGCTGCCTAG) | 1.22 |
| CTGCTGCCATGGACCGGTTTTCCCGGTAATCCGTATTTGCT (site CTGCTTCCTAG) | 0 |
| CTGCTTCCATGGACCGGTTTTCCCGGTAATCCGTATTTGCT (site CTGCTACCTAG) | 0 |
| CTGCTTCCATGGACCGGTTTTCCCGGTAATCCGTATTTGCT (site CTGCTCCCTAG) | 0.807 |
| CTGCTTCCATGGACCGGTTTTCCCGGTAATCCGTATTTGCT (site CTGCTGCCTAG) | 0.00367 |
| CTGCTTCCATGGACCGGTTTTCCCGGTAATCCGTATTTGCT (site CTGCTTCCTAG) | 1.73 |
| CTGGAACCATGGACCGGTTTTCCCGGTAATCCGTATTTGAT (site CAGGAACCTAT) | 0 |
| CTGGAACCATGGACCGGTTTTCCCGGTAATCCGTATTTGAT (site CCGGAACCTAT) | 0 |
| CTGGAACCATGGACCGGTTTTCCCGGTAATCCGTATTTGAT (site CGGGAACCTAT) | 0 |
| CTGGAACCATGGACCGGTTTTCCCGGTAATCCGTATTTGAT (site CTGGAACCTAT) | 0 |
| CTGGAACCATGGACCGGTTTTCCCGGTAATCCGTATTTGCA (site CTGGAAACTTG) | 0 |
| CTGGAACCATGGACCGGTTTTCCCGGTAATCCGTATTTGCA (site CTGGAACCTTG) | 0 |
| CTGGAACCATGGACCGGTTTTCCCGGTAATCCGTATTTGCA (site CTGGAAGCTTG) | 0.00806 |
| CTGGAACCATGGACCGGTTTTCCCGGTAATCCGTATTTGCA (site CTGGAATCTTG) | 2.36 |
| CTGGACACATGGACCGGTTTTCCCGGTAATCCGTATTTGCA (site CTGGAAACTTG) | 0.462 |
| CTGGACACATGGACCGGTTTTCCCGGTAATCCGTATTTGCA (site CTGGACACTTG) | 2.59 |

| Sequence | recombinant UMI read abundance (log10) |
| --- | --- |
| CTGGACACATGGACCGGTTTTCCCGGTAATCCGTATTTGCA (site CTGGAGACTTG) | 0.00455 |
| CTGGACACATGGACCGGTTTTCCCGGTAATCCGTATTTGCA (site CTGGATACTTG) | 1.66 |
| CTGGGCCCATGGACCGGTTTTCCCGGTAATCCGTATTTGCC (site CTGGGCCCTGG) | 0 |
| CTGGTAACATGGACCGGTTTTCCCGGTAATCCGTATTTGCA (site CTGGAAACTTG) | 1.03 |
| CTGGTAACATGGACCGGTTTTCCCGGTAATCCGTATTTGCA (site CTGGCAACTTG) | 0.197 |
| CTGGTAACATGGACCGGTTTTCCCGGTAATCCGTATTTGCA (site CTGGGAACTTG) | 0 |
| CTGGTAACATGGACCGGTTTTCCCGGTAATCCGTATTTGCA (site CTGGTAACTTG) | 2.06 |
| CTGGTATCATGGACCGGTTTTCCCGGTAATCCGTATTTGAC (site CTAGTATCTGT) | 3.16 |
| CTGGTATCATGGACCGGTTTTCCCGGTAATCCGTATTTGAC (site CTCGTATCTGT) | 0 |
| CTGGTATCATGGACCGGTTTTCCCGGTAATCCGTATTTGAC (site CTGGTATCTGT) | 3.22 |
| CTGGTATCATGGACCGGTTTTCCCGGTAATCCGTATTTGAC (site CTTGTATCTGT) | 0.816 |
| CTGGTCGCATGGACCGGTTTTCCCGGTAATCCGTATTTGCA (site CTGGTCGCTTG) | 2.01 |
| CTGTACCCATGGACCGGTTTTCCCGGTAATCCGTATTTGAG (site CTGTACCCTCT) | 0.00463 |
| CTGTCAGCATGGACCGGTTTTCCCGGTAATCCGTATTTGGT (site CTGTCAGCTAC) | 0.563 |
| CTGTCCTCATGGACCGGTTTTCCCGGTAATCCGTATTTGTT (site CTGTCCTCTAA) | 1.92 |
| CTGTCGACATGGACCGGTTTTCCCGGTAATCCGTATTTGGT (site CTGTCGACTAC) | 0.884 |
| CTGTCGGCATGGACCGGTTTTCCCGGTAATCCGTATTTGCC (site CTGTCGGCTGG) | 0 |
| CTGTCTCCATGGACCGGTTTTCCCGGTAATCCGTATTTGAG (site CTGTCTCCTCT) | 0.0686 |
| CTGTCTTCATGGACCGGTTTTCCCGGTAATCCGTATTTGGG (site CTGTCTTCTCC) | 0.0096 |
| CTGTGAACATGGACCGGTTTTCCCGGTAATCCGTATTTGTT (site CTGTGAACTAA) | 1.15 |
| CTTACTACATGGACCGGTTTTCCCGGTAATCCGTATTTGGA (site CTTACTACTTC) | 0.205 |
| CTTAGGCCATGGACCGGTTTTCCCGGTAATCCGTATTTGAA (site CTTAGGCCTTT) | 0.104 |
